What was measured:
HEK293T WT cells = experiment: Click chemistry-based detection of compound ubiquitination in cell lysates; set-up: species or system human; conditions: for Compound ubiquitination in cells (click chemistry, cell lysates): HEK293T WT, 10 μM or 20 μM
Description: Cell lysate-based applications: HEK293T WT or HUWE1 KO cells at ~70% confluency on a 10-cm dish were treated with 10 μM or 20 μM BI8626 derivative 6, 7 or 8 for the indicated times. As indicated in the results section, derivative 8 yielded slightly stronger signal than 6 and was thus used for analyses of the prerequisites of cellular small-molecule ubiquitination. Treatment with 1 μM TAK243 (MedChemExpress) or 10 μM MLN4924 (Sigma-Aldrich) was performed for 1 h, prior to derivative 8 administration. Cells were collected with ice-cold 1 x DPBS, centrifugated, and the cell pellet was resuspended in 300 μL sodium phosphate buffer (pH 7.0) (Jena Bioscience), supplemented with 1% (v/v) NP-40, 3 M urea, 10 mM NEM, 50 μM PR-619, 10 μM MG-132 and protease-phosphatase inhibitor cocktail. After 20 min rotating at 4 °C, the lysate was cleared by centrifugation, the total protein concentration determined with a Pierce BCA Protein Assay Kit, the sample diluted to ~7.5 μg μL^−1 and supplemented with 5 μM IRDye 800CW Azide (LI-COR), a mixture of 2 mM CuSO4/10 mM THPTA (Jena Bioscience) and 100 mM sodium ascorbate. The click chemistry reaction was performed in the dark at 37 °C, shaking at 300 rpm. After 1 h, the reaction was quenched with 40 mM EDTA, diluted 1.2-fold with 10 mM Tris (pH 7.5), 150 mM NaCl and 0.5 mM EDTA. 25 μL Ubiquitin-Trap Magnetic Agarose beads (Proteintech) were added, the mixture was rotated at 4 °C for 80 min, the resin washed 3 x with 10 mM Tris (pH 7.5), 150 mM NaCl, 0.05% (v/v) NP-40, 0.5 mM EDTA and 3 M urea, following protein elution in 40 μL of 1.5 x SDS-loading dye at 95 °C for 5 min. 10 μL were subjected to SDS-PAGE and analyzed by fluorescence scanning (Odyssey CLx; LI-COR) and Coomassie staining.

HUWE1^HECT [1] = biological target: T1, HUWE1^HECT (Homo sapiens, UniProt Q7Z6Z7); experiment: HUWE1^HECT multi-turnover ubiquitination reactions (fluorescent Ub tracer, SDS-PAGE); format: biochemical; conditions: 20 μM compound
T1 construct: the isolated HECT domain of HUWE1 (HUWE1^HECT); made in house
T1 sequence (Q7Z6Z7 4038-4374 limits assumed): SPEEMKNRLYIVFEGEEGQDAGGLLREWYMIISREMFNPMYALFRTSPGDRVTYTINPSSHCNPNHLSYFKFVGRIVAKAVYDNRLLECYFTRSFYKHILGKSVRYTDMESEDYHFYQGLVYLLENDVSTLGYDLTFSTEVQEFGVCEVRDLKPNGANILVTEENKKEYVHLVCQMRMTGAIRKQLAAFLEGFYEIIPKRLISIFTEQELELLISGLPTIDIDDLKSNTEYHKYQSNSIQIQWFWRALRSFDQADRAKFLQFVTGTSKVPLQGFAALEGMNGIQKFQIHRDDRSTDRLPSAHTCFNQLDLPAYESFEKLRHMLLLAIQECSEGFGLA
Description: (§1) HUWE1^HECT multi-turnover ubiquitination reactions were performed for 30 minutes (unless stated otherwise) with 200 nM UBA1, 5 μM UBE2L3 or UBE2D3 (as specified), 1 μM HUWE1^HECT and 30 μM Ub in 25 mM HEPES (pH 7.5), 100 mM NaCl, 3 mM MgCl2, and 0.5 mM TCEP. HUWE1^FL multi-turnover ubiquitination reactions included 50 nM UBA1, 2.5 μM UBE2L3, 0.05 μM HUWE1^FL, 0.5 μM MCL1 (or 0.5 μM H2B or 1 μM FOXP3) and 20 μM Ub in 20 mM HEPES (pH 7.5), 100 mM NaCl, 3 mM MgCl2, and 0.5 mM TCEP. All multi-turnover reactions were started by the addition of 1 mM ATP, incubated at 30 °C, quenched with SDS-loading dye. If not stated otherwise, HUWE1^FLautoubiquitination reactions were incubated for 20 minutes. Substrate ubiquitination reactions with MCL1 or H2B were incubated for 10 and 20 min, respectively; those with FOXP3 for 30 min. Those reactions that were monitored by fluorescence contained a fluorescent Ub tracer (IRDye 800CW maleimide; LI-COR)[55] and were monitored using an Odyssey CLx scanner (LI-COR), followed by Coomassie staining. In the fluorescence images, only those marker bands are labeled (in kDa) that are visible by fluorescence; all marker bands are labeled in the Coomassie-stained images. Statistical analyses were performed with Prism 9 v.9.3.1 (GraphPad).

HUWE1^HECT [2] = biological target: T2, HUWE1^HECT (Homo sapiens, UniProt Q7Z6Z7); experiment: Analytical SEC / intact protein MS of HUWE1^HECT-driven compound ubiquitination; format: biochemical; conditions: 20 μM compound; + ATP; WT Ub
T2 construct: the isolated HECT domain of HUWE1 (HUWE1^HECT); made in house
T2 sequence (Q7Z6Z7 3993-4374): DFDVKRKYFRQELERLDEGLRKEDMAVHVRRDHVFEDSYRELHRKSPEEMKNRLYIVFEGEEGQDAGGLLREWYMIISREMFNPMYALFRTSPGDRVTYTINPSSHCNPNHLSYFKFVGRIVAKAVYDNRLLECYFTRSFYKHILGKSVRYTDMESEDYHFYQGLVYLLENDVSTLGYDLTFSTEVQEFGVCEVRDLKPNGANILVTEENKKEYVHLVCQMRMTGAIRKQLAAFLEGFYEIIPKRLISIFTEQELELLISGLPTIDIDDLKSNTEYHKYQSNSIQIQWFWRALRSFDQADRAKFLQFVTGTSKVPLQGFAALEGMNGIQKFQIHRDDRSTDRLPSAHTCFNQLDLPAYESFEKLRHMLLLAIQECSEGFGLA
Description: HUWE1^HECT multi-turnover ubiquitination reactions were performed with 500 nM UBA1, 5 μM UBE2L3, 5 μM HUWE1^HECT and 100 μM Ub in 20 mM HEPES (pH 7.5), 100 mM NaCl and 0.5 mM TCEP in the presence of 1 mM ATP and 3 mM MgCl2. After 15 min incubation at 30 °C, the mixture was injected into a Superdex 75 Increase 3.2/300 column (Cytiva), equilibrated in 25 mM HEPES (pH 7.5), 100 mM NaCl, and 0.5 mM TCEP at 4 °C. Chromatograms were analyzed and peaks integrated with Unicorn v.7.9.02440 (Cytiva). Data were plotted with Prism v.9.3.1 (GraphPad).
Intact protein LC/MS: protein molecular weights (MWs) were determined by LC/MS on a nanoflow chromatography system (Dionex U3000 nanoRSLC), hyphenated to a hybrid quadrupole/orbitrap mass spectrometer (Q Exactive HF) with a NanoFlex ion source and controlled by Xcalibur v.2.4 (all Thermo Fisher Scientific). Proteins were dissolved in 2% (v/v) acetonitrile (ACN), 0.1% (v/v) formic acid (FA) to a concentration of 100 fmol μL^−1. For each analysis, 500 fmol were enriched on a pre-column (0.15 ×20 mm, Reprosil-Pur120 C18-AQ 5 μm; Dr. Maisch GmbH) and separated on an analytical RP-C18 column (0.075 mm×200 mm, Reprosil-Pur 120 C18-AQ; 1.9 μm, Dr. Maisch GmbH), using a 23-min linear gradient of 10–80% (v/v) ACN/0.1% (v/v) FA at 300 nl min^−1. MS data were acquired in full MS mode across the 500–1800 m/z-range at a resolution setting of 120,000 FWHM, an AGC target of 1*10e6 and a maximum fill time of 200 ms. Charge state deconvolution and MW representation were performed in Freestyle v.1.9 (Thermo Fisher Scientific), using default settings for high-resolution data.

HUWE1^FL [3] = biological target: T3, HUWE1^FL (Homo sapiens, UniProt Q7Z6Z7); experiment: HUWE1^FL multi-turnover ubiquitination reactions without protein substrate (autoubiquitination, free Ub chains); format: biochemical; conditions: for Inhibition by derivatives modified at the piperazine-linked benzyl moiety: Supplementary Fig. 18c, d
T3 construct: made in house; host or cells: HEK293T (transient transfection, anti-Flag purification, SEC)
Description: as §1

HUWE1^FL [4] = biological target: T3, HUWE1^FL; experiment: Click chemistry-based detection of compound ubiquitination by HUWE1^FL in vitro; format: biochemical
Description: In vitro applications: Multi-turnover ubiquitination reactions were performed with 50 nM UBA1, 2.5 μM UBE2L3, 50 nM HUWE1^FL and 20 μM Ub in 20 mM HEPES (pH 7.5), 100 mM NaCl, 0.5 mM TCEP, and 20 μM derivative 6 or 7 ± 0.5 μM MCL1 at 30 °C for 10 min. The reactions were started by addition of 1 mM ATP/3 mM MgCl2 and quenched with 3 M urea. Click-chemistry labeling was performed by incubation of the samples with 20 μM IRDye 800CW Azide Infrared Dye (LI-COR), 5 mM CuSO4, 10 mM THPTA and 50 mM sodium ascorbate for 60 min at 37 °C in the dark, following by quenching with 40 mM EDTA. Following SDS-PAGE, the gels were fixed in 10% acetic acid and 30% ethanol for 2 ×15 min and washed in water overnight.

HEK293T HUWE1 KO cells = experiment: Click chemistry-based detection of compound ubiquitination in HUWE1 knock-out cells (± HUWE1 overexpression); format: cell-based, human
Description: The protocol for CRISPR/Cas9-mediated HUWE1-knockout in HEK293T cells was previously described. In short, two sgRNAs were cloned separately into pX330-U6-Chimeric_BB-CBh-hSpCas9 (a gift from Feng Zhang; http://n2t.net/addgene:42230; RRID:Addgene_42230)[68] and pSpCas9(BB)−2A-GFP (PX458) (a gift from Feng Zhang; http://n2t.net/addgene:48138; RRID:Addgene_48138)[69]. Transfections were performed with Lipofectamine LTX (Thermo Fisher Scientific), single cells FACS-seeded into 96-well plates, and clones derived from single cells screened for HUWE1 deficiency by sequencing and immunoblotting.
Transient transfections of HA-tagged HUWE1^FL WT and C4341S (Fig. 5g) were performed in antibiotic-free and FBS-free media using Lipofectamine 3000 (Thermo Fisher Scientific). 6 h post transfection the media was exchanged to media supplemented with antibiotics and FBS. 24 h post transfection cells were treated with 10 μM or 20 μM BI8626 derivative 8 for 1 h and then collected.
Cell lysate-based applications: HEK293T WT or HUWE1 KO cells at ~70% confluency on a 10-cm dish were treated with 10 μM or 20 μM BI8626 derivative 6, 7 or 8 for the indicated times. As indicated in the results section, derivative 8 yielded slightly stronger signal than 6 and was thus used for analyses of the prerequisites of cellular small-molecule ubiquitination. Treatment with 1 μM TAK243 (MedChemExpress) or 10 μM MLN4924 (Sigma-Aldrich) was performed for 1 h, prior to derivative 8 administration. […] After 20 min rotating at 4 °C, the lysate was cleared by centrifugation, the total protein concentration determined with a Pierce BCA Protein Assay Kit, the sample diluted to ~7.5 μg μL^−1 and supplemented with 5 μM IRDye 800CW Azide (LI-COR), a mixture of 2 mM CuSO4/10 mM THPTA (Jena Bioscience) and 100 mM sodium ascorbate. […] 10 μL were subjected to SDS-PAGE and analyzed by fluorescence scanning (Odyssey CLx; LI-COR) and Coomassie staining.

T3 sequence (Q7Z6Z7 whole entry): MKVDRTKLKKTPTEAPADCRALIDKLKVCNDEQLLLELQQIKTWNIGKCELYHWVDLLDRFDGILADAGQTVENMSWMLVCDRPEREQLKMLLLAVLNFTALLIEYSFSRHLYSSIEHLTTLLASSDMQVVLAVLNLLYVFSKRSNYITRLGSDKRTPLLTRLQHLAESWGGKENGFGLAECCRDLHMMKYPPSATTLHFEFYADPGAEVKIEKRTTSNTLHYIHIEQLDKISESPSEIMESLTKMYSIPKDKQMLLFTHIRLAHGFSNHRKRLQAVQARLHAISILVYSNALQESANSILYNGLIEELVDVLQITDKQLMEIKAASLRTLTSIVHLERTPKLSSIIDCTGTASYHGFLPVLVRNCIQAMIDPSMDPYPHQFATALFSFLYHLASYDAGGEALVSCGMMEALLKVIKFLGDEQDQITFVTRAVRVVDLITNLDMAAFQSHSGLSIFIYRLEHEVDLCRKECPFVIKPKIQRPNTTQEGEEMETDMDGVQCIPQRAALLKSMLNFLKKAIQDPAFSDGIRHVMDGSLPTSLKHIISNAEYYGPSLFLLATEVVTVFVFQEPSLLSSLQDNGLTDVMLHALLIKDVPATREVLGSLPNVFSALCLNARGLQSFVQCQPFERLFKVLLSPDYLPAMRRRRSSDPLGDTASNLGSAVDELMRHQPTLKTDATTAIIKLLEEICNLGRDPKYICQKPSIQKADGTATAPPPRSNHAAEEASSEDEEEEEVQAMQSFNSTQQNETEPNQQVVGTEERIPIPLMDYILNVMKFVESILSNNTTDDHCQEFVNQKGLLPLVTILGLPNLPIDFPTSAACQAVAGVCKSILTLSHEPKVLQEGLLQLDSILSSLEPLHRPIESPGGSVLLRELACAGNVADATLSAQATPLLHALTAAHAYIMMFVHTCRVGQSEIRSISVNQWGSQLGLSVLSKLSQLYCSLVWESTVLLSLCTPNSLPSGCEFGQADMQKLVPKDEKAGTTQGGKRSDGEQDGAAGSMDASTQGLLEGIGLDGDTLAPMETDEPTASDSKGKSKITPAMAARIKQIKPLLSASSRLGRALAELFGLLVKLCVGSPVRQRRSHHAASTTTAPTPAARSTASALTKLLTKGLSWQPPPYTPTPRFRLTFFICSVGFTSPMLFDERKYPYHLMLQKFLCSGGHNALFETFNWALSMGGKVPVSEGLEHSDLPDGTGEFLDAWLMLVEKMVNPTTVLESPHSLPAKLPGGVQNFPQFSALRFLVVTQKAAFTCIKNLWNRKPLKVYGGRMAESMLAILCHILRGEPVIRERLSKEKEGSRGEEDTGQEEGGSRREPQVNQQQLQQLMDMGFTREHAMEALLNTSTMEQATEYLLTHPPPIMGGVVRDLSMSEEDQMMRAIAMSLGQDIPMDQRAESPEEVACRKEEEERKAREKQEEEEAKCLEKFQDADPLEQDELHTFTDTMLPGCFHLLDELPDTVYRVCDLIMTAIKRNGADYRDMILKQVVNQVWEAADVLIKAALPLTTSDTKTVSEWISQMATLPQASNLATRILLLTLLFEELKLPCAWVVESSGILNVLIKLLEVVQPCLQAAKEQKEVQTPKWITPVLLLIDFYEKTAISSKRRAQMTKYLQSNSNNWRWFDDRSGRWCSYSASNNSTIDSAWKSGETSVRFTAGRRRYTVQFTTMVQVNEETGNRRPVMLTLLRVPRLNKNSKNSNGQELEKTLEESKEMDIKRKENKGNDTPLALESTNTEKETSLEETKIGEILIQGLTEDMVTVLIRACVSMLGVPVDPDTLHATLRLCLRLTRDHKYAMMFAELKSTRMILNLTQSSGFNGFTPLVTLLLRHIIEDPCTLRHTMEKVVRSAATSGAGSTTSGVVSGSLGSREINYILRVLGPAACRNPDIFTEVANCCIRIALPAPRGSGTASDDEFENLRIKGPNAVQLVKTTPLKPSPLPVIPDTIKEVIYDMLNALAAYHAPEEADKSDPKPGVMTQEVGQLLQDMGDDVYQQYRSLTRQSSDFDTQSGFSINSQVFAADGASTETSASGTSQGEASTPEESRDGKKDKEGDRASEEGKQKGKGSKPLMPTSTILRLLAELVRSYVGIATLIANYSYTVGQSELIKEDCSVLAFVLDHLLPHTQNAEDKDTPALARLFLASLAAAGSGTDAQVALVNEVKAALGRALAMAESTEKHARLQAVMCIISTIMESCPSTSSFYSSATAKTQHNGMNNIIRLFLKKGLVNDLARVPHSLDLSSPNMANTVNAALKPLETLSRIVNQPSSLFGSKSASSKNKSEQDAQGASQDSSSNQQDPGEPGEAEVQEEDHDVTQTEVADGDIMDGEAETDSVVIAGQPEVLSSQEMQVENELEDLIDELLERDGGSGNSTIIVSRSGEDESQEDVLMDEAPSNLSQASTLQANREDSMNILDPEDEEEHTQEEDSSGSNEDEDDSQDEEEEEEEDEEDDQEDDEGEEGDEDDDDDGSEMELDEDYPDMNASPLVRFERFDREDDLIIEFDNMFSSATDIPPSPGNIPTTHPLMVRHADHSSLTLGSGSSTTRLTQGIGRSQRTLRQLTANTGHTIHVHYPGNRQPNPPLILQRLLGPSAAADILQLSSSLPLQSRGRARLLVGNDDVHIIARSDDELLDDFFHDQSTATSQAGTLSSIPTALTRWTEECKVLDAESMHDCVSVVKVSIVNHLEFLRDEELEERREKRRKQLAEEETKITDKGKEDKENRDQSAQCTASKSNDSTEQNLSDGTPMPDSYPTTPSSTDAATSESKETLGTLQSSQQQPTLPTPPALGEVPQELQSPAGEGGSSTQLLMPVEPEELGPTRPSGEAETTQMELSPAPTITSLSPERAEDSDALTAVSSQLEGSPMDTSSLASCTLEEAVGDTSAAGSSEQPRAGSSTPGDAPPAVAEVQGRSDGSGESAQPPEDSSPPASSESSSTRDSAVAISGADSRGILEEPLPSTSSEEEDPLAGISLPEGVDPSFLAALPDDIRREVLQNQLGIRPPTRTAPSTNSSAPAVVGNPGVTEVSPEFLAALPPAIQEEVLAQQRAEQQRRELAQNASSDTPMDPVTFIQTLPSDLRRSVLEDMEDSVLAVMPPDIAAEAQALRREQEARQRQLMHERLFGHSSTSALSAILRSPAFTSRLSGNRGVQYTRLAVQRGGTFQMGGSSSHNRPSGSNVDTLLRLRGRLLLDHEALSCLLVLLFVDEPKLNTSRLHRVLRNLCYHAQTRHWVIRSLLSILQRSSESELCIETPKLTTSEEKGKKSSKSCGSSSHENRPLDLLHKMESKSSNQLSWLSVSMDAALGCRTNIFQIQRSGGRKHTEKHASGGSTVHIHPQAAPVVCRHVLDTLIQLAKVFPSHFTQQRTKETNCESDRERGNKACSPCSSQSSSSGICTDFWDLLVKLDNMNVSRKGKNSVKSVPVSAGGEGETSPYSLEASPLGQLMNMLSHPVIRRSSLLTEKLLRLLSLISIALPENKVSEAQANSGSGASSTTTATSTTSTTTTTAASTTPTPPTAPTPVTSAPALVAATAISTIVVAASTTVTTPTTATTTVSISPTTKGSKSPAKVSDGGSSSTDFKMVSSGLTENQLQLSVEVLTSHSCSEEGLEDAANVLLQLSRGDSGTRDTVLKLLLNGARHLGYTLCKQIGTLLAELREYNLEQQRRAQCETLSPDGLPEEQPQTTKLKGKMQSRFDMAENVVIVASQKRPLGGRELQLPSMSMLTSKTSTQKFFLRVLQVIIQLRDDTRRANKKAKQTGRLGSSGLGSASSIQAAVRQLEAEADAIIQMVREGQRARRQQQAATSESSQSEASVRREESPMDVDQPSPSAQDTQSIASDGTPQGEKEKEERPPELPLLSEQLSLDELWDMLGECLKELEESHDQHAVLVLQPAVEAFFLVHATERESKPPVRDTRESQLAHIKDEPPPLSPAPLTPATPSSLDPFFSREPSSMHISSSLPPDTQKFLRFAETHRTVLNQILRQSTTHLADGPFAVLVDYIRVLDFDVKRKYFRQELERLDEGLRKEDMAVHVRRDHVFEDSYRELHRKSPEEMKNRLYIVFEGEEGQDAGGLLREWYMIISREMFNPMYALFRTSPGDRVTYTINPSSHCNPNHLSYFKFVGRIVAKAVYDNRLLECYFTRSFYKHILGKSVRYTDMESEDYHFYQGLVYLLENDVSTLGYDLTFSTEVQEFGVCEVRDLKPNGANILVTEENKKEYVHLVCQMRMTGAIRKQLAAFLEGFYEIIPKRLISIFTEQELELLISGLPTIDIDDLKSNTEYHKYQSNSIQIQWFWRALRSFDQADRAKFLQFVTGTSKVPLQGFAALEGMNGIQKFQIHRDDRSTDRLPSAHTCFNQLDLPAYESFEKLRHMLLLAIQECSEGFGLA

Structure (SMILES): NS(=O)(=O)OC[C@@H]1C[C@@H](n2ccc3c(N[C@H]4CCc5ccccc54)ncnc32)C[C@@H]1O [MLN4924]
- Effect on cell-based ubiquitination of derivative 8 (HEK293T WT cells; 10 μM MLN4924 for 1 h prior to derivative 8): does not markedly affect derivative 8 ubiquitination

Structure (SMILES): NS(=O)(=O)OC[C@H]1C[C@@H](Nc2ccnc3cc(-c4cccc(SC(F)(F)F)c4)nn23)[C@H](O)[C@@H]1O [TAK243]
- Effect on cell-based ubiquitination of derivative 8 (HEK293T WT cells; 1 μM TAK243 for 1 h prior to derivative 8): markedly reduced

Structure (SMILES): NCc1ccc(CNc2ncnc3c(N4CCN(Cc5ccccc5)CC4)ncnc23)cc1 [derivative 1, N-(4-(aminomethyl)benzyl)−8-(4-benzylpiperazin-1-yl)pyrimido[5,4-d]pyrimidin-4-amine]
- HUWE1^HECT inhibition (autoubiquitination) by BI8626 derivatives (HUWE1^HECT [1]): retained HUWE1^HECT inhibition
- Compound ubiquitination by HUWE1^HECT (SEC, intact protein MS) (HUWE1^HECT [2]): efficiently ubiquitinated
- Inhibition of HUWE1^FL by BI8626 derivatives (HUWE1^FL [3]; 20 μM, without protein substrate and with MCL1 (Fig. 4c, d)): also inhibited

Structure (SMILES): CN1CCN(c2ncnc3c(NCc4cccc(CN)c4)ncnc23)CC1 [derivative 5, N-(3-(aminomethyl)benzyl)−8-(4-methylpiperazin-1-yl)pyrimido[5,4-d]pyrimidin-4-amine]
- Inhibition by derivatives modified at the piperazine-linked benzyl moiety (HUWE1^FL [3]): maintains considerable inhibition

Structure (SMILES): C#CCCCN1CCN(c2ncnc3c(NCc4cccc(CN)c4)ncnc23)CC1 [derivative 6, N-(3-(aminomethyl)benzyl)−8-(4-(pent-4-yn-1-yl)piperazin-1-yl)pyrimido[5,4-d]pyrimidin-4-amine]
- Inhibition by derivatives modified at the piperazine-linked benzyl moiety (HUWE1^FL [3]): preserved inhibition to a similar extent
- Compound ubiquitination by HUWE1^FL, click-chemistry fluorescence (HUWE1^FL [4]; 20 μM compound, 10 min, ATP-dependent): fluorescent signals corresponding to the mono- and diubiquitinated forms
- MCL1 ubiquitination (immunoblotting) with increasing compound (HUWE1^FL [4]; varying concentrations of derivative 6 and MCL1): decreased as the compound modification increased
- Compound ubiquitination in cells (click chemistry, cell lysates) (HEK293T WT cells): Both mono- and polyubiquitinated forms of derivatives 6 and 8 were detected

Structure (SMILES): C#CCN1CCN(c2ncnc3c(NCc4cccc(CN)c4)ncnc23)CC1 [derivative 8, N-(3-(aminomethyl)benzyl)−8-(4-(prop-2-yn-1-yl)piperazin-1-yl)pyrimido[5,4-d]pyrimidin-4-amine]
- Inhibition by derivatives modified at the piperazine-linked benzyl moiety (HUWE1^FL [3]): preserved inhibition to a similar extent
- Compound ubiquitination in cells (click chemistry, cell lysates) (HEK293T WT cells): Both mono- and polyubiquitinated forms of derivatives 6 and 8 were detected
- Compound ubiquitination in HUWE1 knock-out cells (HEK293T HUWE1 KO cells; HEK293T HUWE1 KO vs WT): still detected in this context, albeit at slightly reduced levels
- Compound ubiquitination upon overexpression of WT HUWE1 (not catalytically inactive variant) (HEK293T HUWE1 KO cells; HEK293T HUWE1 KO, transient transfection): enhances compound ubiquitination
- Share of total compound ubiquitination signal that endogenous HUWE1 accounts for (HEK293T HUWE1 KO cells; HEK293T WT vs HUWE1 KO, all species (8-Ub, 8-Ub2, 8-Ubn)): ≤ 25%

From publication PMC12405493, “Selective ubiquitination of drug-like small molecules by the ubiquitin ligase HUWE1” (Nature Communications, 2025)
